Experiment [1] deals with p53 transcriptional activity in UMSCC47 cells. In words: p53 transcriptional activity, Cignal p53 luciferase reporter. Format: cell-based, human. To be noted: 24 hours; for p53 activity, increase: vs vehicle. On the procedure: Cells were transfected with 100 ng of Cignal p53 reporter (SABiosciences, Valencia, Calif.) using Lipofectamine 2000. Cignal p53 reporter contains tandem repeats of the p53 consensus transcriptional response element. After 48 hours, cells were washed with cold PBS, lysed in passive lysis buffer (Promega), and measured for Firefly/Renilla dual luciferase activities in a luminometer using the Dual-Light System (Applied Biosystems, Foster City, Calif.). […] to control for transfection efficiency. A modification to the protocol was used for compound treatment. UMSCC47 cells were transfected with 100 ng of Cignal p53 reporter. After 24 hours, cells were treated with vehicle, CH1iB (10 μM), cis-platinum (10 μM), or combination of CH1iB (10 μM) and cis-platinum (10 μM) and measured for Firefly/Renilla dual luciferase activities 24 hours post-treatment.

In experiment [2] the test system is UMSCC47 cells. As to the kind of experiment: Cell proliferation (MTT). Type of experiment: cell-based, human. The settings on record: for cell proliferation, single-agent: UMSCC47, 10 μM; for cell proliferation, in combination with cis-platinum: UMSCC47, 10 μM with cis-platinum 10 μM. On the procedure: (§1) Cell proliferation was assessed using the MTT reagent (Roche Molecular Biochemicals, Nutley, N.J.) to detect metabolic active cells. Absorbance was measured at 570 nm in the Spectra Max 190 ELISA reader (Molecular Devices, Sunnyvale, Calif.) after overnight incubation. For clonogenic survival, 200 cells per well were plated in complete growth media and allowed to grow until visible colonies were formed (14 days). Cell colonies were fixed with cold methanol, stained with 0.25% crystal violet in 25% methanol, washed, and air dried. For apoptosis, cells were harvested, washed with cold PBS, and co-stained with Annexin V and propidium iodide according to the manufacturer's protocol (ApoAlert Annexin V-FITC Apoptosis Kit; Clontech). Apoptotic cells were analyzed using BD FACS Calibur (BD Biosciences Corporation, Franklin Lakes, N.J.) at The Ohio State University Comprehensive Cancer Center Analytical Cytometry Core.

The subject of experiment [3] is UMSCC47 cells. In words: Clonogenic survival. Type of experiment: cell-based, human. The settings on record: UMSCC47, 10 μM, 14 days, vs vehicle. Here is the method:
as §1

In experiment [4] the test system is UMSCC47 cells. In words: Apoptosis, Annexin V FACS. Type of experiment: cell-based, human. The settings on record: UMSCC47, 10 μM, 24 hours, vs vehicle. On the procedure:
as §1

The subject of experiment [5] is UMSCC47 cells. As to the kind of experiment: Tumorsphere formation. To be noted: UMSCC47, 10 μM, 7 days, vs vehicle. Format: cell-based, human. Here is the method:
Cells were harvested and seeded in a serum-free defined medium consisting of KSF medium supplemented with epidermal growth factor, basic fibroblast growth factor, insulin, and hydrocortisone in low-attachment plates (Corning Incorporated, Corning, N.Y.) for tumorspheres. Tumorsphere formation efficiency was calculated as the number of tumorspheres (≧50 μm in diameter) formed in 7 days divided by the original number of cells seeded. Tumorsphere diameter was measured using NIS-Elements software.

In experiment [6] the test system is IMR90 (human normal fibroblasts). As to the kind of experiment: Cell proliferation (MTT). Format: cell-based. The settings on record: for efficacy of cis-platinum on proliferation, combination: IMR90 fibroblasts, 10 μM with cis-platinum 10 μM; for cell proliferation, single-agent: human normal IMR90 fibroblasts, 10 μM. Here is the method:
as §1

The test system of experiment [7] is total and acetylated p53 in UMSCC74A cells. As to the kind of experiment: Western blot of total and acetylated[K382] p53. To be noted: 10 μM, 24 hours. Format: cell-based, human. On the procedure:
(§2) Whole cell lysates were mixed with Laemmli loading buffer, boiled, separated by SDS-PAGE, and transferred to a nitrocellulose membrane. Subsequently, immunoblot analyses were performed using antibodies specific to V5 (Invitrogen), p53 (sc-126, Santa Cruz Biotechnology, Santa Cruz, Calif.), or acetylated[[…]]-p53 (2525, Cell Signaling Technology). The signal was developed using the SuperSignal Western Blotting Kit (Pierce, Rockford, Ill.).
(Immunoblotting shows a protein as a band on a membrane.)

Experiment [8] has as its system total and acetylated p53 in UMSCC47 cells. In words: Western blot of total and acetylated[K382] p53. Format: cell-based, human. To be noted: 24 hours; for p53 accumulation and acetylated p53 levels: UMSCC47, 10 μM. On the procedure: as §2
Experiment [9] relates to p300, p53, p21, miR-34a, miR-200c expression in UMSCC47 cells. As to the kind of experiment: Quantitative real-time PCR (TaqMan). Format: cell-based, human. The settings on record: UMSCC47, 10 μM, 24 hours. Here is the method: (§3) Cells were extracted for total RNA using the TRIzol® reagent (Invitrogen) or TaqMan PreAmp Cells-to-CT kit (Applied Biosystems). Expression of p300, p53, p21, miR-34a and miR-200c were determined using the Applied Biosystems 7900HT Fast Real-Time PCR System with validated TaqMan gene expression assays (Applied Biosystems). p53, p300, and p21 expression were normalized to GADPH and miR-34a and miR-200c expression were normalized to RNU44 using the ΔΔCt method.
On the technique in general: Real-time PCR tracks product formation cycle by cycle.

The subject of experiment [10] is p300, p53, p21, miR-34a, miR-200c expression in UMSCC74A cells. As to the kind of experiment: Quantitative real-time PCR (TaqMan). Format: cell-based, human. To be noted: 10 μM, 24 hours. On the procedure: as §3
Experiment [11] deals with T1, HPV16 E6-p300 association in UMSCC47 cells (Homo sapiens, UniProt Q09472).
T1 construct: endogenous in cells; host or cells: UMSCC47 (HPV16-positive HNSCC cells)
T1 sequence (Q09472 whole entry): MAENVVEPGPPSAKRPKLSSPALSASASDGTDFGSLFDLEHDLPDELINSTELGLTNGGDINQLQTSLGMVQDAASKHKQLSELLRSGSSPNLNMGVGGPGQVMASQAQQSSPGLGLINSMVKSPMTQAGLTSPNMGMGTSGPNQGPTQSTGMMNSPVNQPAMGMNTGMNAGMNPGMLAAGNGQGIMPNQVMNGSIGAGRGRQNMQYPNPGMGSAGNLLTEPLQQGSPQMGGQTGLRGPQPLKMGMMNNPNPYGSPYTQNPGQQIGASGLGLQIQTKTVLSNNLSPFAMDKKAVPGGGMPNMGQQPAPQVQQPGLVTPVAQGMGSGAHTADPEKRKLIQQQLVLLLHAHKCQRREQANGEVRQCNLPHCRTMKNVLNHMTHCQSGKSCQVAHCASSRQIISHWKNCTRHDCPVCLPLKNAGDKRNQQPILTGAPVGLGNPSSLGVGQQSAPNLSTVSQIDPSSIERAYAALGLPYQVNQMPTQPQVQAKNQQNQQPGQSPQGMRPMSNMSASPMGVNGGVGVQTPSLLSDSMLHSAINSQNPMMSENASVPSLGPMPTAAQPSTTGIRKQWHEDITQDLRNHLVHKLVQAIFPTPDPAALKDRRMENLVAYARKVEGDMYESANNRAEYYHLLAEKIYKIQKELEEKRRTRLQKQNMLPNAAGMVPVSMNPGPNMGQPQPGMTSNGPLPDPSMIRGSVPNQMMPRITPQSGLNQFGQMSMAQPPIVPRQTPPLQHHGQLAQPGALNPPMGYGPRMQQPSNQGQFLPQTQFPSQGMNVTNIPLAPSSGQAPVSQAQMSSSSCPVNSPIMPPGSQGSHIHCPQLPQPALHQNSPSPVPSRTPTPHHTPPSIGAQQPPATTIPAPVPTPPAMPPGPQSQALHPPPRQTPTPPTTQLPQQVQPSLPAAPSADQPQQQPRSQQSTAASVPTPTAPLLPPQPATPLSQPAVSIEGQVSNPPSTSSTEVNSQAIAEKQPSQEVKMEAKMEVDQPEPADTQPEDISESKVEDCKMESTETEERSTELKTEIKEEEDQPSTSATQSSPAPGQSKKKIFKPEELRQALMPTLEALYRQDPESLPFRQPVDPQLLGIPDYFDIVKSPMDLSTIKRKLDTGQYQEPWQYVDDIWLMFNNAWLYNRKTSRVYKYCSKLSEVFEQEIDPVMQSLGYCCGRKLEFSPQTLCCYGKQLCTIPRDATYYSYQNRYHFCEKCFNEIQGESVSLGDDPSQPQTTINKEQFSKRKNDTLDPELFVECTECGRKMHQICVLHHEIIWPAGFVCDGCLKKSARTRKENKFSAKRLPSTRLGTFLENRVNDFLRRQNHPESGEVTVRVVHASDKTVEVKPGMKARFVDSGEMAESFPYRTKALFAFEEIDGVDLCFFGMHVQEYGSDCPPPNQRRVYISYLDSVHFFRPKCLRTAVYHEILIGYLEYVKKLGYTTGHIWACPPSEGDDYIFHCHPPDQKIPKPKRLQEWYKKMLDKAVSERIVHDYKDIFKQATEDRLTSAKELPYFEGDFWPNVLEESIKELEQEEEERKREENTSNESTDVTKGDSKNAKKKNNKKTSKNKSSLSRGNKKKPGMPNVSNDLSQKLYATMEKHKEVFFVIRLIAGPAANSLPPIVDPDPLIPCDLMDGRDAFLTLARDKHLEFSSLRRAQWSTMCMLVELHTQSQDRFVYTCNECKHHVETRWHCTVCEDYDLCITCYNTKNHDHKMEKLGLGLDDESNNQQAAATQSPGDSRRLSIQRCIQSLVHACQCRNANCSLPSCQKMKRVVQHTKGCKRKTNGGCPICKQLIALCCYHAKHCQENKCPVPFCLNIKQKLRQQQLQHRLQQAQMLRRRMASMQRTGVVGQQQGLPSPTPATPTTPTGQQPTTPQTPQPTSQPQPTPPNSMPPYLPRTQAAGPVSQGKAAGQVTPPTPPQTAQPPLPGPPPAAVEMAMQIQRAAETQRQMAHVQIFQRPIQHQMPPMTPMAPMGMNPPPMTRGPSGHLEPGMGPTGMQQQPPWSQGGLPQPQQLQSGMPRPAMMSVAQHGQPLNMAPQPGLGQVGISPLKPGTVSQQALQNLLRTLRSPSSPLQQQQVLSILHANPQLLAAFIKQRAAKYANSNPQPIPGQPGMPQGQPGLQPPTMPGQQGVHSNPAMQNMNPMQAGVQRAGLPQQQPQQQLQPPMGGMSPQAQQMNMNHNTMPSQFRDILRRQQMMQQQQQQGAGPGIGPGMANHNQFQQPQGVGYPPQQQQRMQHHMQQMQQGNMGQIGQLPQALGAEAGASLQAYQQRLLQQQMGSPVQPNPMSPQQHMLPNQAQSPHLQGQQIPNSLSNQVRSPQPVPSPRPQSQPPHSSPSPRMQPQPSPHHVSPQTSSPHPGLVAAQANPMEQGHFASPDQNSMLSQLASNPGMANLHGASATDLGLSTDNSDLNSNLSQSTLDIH
In words: Immunoprecipitation, HPV16 E6-p300 association. Format: cell-based. The settings on record: UMSCC47, 10 μM, 24 hours. On the procedure:
Cells were lysed with NP buffer [50 mM Tris (pH 8.0), 150 mM NaCl, 0.5% deoxycholate, 0.1% SDS, and 1.0% NP-40] containing 1× Protease Inhibitor Cocktail (Roche, Switzerland) at 4° C. with gentle rocking for 15 min. The supernatant was pre-cleared to block nonspecific binding with 50 μL protein A/G Agarose beads (Pierce Biotechnology) that had been pre-washed with NP buffer before use. Equal amounts of anti-E6 antibody (Abcam), anti-p300 antibody (Millipore), or IgG antibody (Cell Signaling) were added to the respective samples. After 4 hours incubation at 4° C., 50 μL pre-washed protein A/G-agarose beads were added to each tube and immunoprecipitation was performed by rocking overnight at 4° C. The immunoprecipitated complexes were washed with NP buffer and then eluted using 2×SDS sample buffer. Eluted sample and 10% of input were resolved by SDS-PAGE for Western blot analysis with anti-E6, anti-p300, or anti-V5 antibodies.

Experiment [12] concerns p53 transcriptional activity in UMSCC74A cells. As to the kind of experiment: p53 transcriptional activity, Cignal p53 luciferase reporter. Type of experiment: cell-based, human. The settings on record: HPV-negative UMSCC74A, 10 μM, 24 hours. (Reporter assays use an easily measured gene product as a stand-in for the process of interest.)
Experiment [13] concerns UMSCC74A cells. In words: Cell proliferation (MTT). Type of experiment: cell-based, human. The settings on record: for cell proliferation, single-agent: HPV-negative UMSCC74A, 10 μM; for efficacy of cis-platinum on proliferation, combination: UMSCC74A, 10 μM with cis-platinum 10 μM. On the procedure:
as §1

Where [14] appears, read: HPV-positive UMSCC47 cells, 10 μM.
Setting [15] is: UMSCC47, CH1iB 10 μM and cis-platinum 10 μM.

As to “XELA*RAADQ-NH2 (ELXRAADQ; not fully specified; hydrogen bond surrogate crosslink; C-terminal amide; CH1iB-MUT) [specificity control for CH1iB in which one leucine residue is mutated to alanine]”, in [1] (setting [14]), the “p53 activity, increase” value is on record as 14%. In addition, in experiment [2], the “cell proliferation, single-agent” value is listed as “no effect” and the “cell proliferation, in combination with cis-platinum” value is “no effect”.

With “XELA*RALDQ-NH2 (ELXRALDQ; not fully specified; hydrogen bond surrogate crosslink; C-terminal amide; CH1iB) [hydrogen bond surrogate helix mimic of HIF-1α targeting site B of p300 CH1]”, the “p53 activity, increase” value in [1] (setting [14]) is given as 71%. The “effect of cis-platinum on p53 activity, combination” value in [1] (setting [15]) is reported as “potentiated the effect of cis-platinum”. The “clonogenic survival, reduction (inhibition)” value in experiment [3] is reported as 35%. Also, in experiment [4], the “apoptosis, enhancement” value stood at 353%. Also, the “tumorsphere formation, reduction” value in experiment [5] is recorded as 20%. For the same substance, the “efficacy of cis-platinum on proliferation, combination” value in experiment [6] and in [13] was “did not augment” each time. The results for the “cell proliferation, single-agent” value in [6], in experiment [2] and in experiment [13] were “had no effect”, “inhibited” and “had no effect”, respectively. In experiment [7], the p53 levels entry is listed as “did not modulate”. In experiment [8], the “p53 accumulation and acetylated p53 levels” value is reported as “enhanced”. Further, the “effect of cis-platinum on p53 accumulation and acetylation, combination” value in experiment [8] (setting [15]) is “potentiated the effect of cis-platinum”. The “p21, miR-34a, and miR-200c expression” value in experiment [9] is listed as “modest but significant increase”. Also, the “expression of p300, p53, and p53-regulated genes” value in experiment [10] is reported as “unchanged”. In addition, the “association between E6 and p300” value in experiment [11] is “reduced”. Further, the p53 activity entry in experiment [12] was “did not modulate”. The “cell proliferation, in combination with cis-platinum” value in experiment [2] was “potentiated the anti-proliferative efficacy of cis-platinum”.

For the substance “XTAA*DCEYNAR (TAXDCEYNAR; not fully specified; hydrogen bond surrogate crosslink; CH1iA) [hydrogen bond surrogate stabilized α-helical mimic of HIF-1α targeting site A of p300 CH1, reference compound]”, the p53 activity result is “had no effect” in experiment [1] (setting [14]) and “did not modulate” in [12]. Besides, the “efficacy of cis-platinum on proliferation, combination” value in [6] and in experiment [13] was “did not augment” throughout. For the same substance, the “cell proliferation, single-agent” value in experiment [6] is “had no effect”; in experiment [2], “inactive”; in [13], “had no effect”. In [7], the p53 levels entry was “did not modulate”. The “p53 accumulation and acetylated p53 levels” value in experiment [8] is “had no effect”. In addition, in experiment [10], the “expression of p300, p53, and p53-regulated genes” value is given as “unchanged”. Besides, the “association between E6 and p300” value in experiment [11] is given as “not”.

These data come from patent US9695153B2, “Oligooxopiperazines for p53 reactivation” (New York University, priority 2013, dated 2017).
